# Test results published in patent US20240262917A1, “ANTIBODIES AGAINST ALK AND METHODS OF USE THEREOF” (Dana-Farber Cancer Institute, Inc., priority 2021, published 2024).
# How the values were obtained:
# ALK ECD cleavage = assay: WB analysis of ALK ECD cleavage in cells treated with MMP inhibitors; type: cell-based; conditions: for levels of the shed ALK ECD fragment in media from treated cells: indicated doses; for ALK ECD cleavage / shed fragment: 2 μM×12 hr.
# Source text: (§1) (A) WB analysis of ALK expression in lysates and CM of NGP cells treated with the broad-spectrum protease inhibitor GM6001 and the MMP-9/13 inhibitor CAS 204140-01-2, at the indicated doses, for 12 hr. Untreated (U) or DMSO-treated cells were used as controls. The 8G7 N-terminal anti-ALK antibody was used to detect the shed fragment in CM and a C-terminal anti-ALK antibody used for the cell lysates in this and subsequent panels. β-actin is used as a loading control throughout this figure. (B) WB analysis of ALK expression in NGP cells treated with the MMP-9 (CTK8G1150) and MMP-3/12/13 (MMP408) inhibitors (2 μM×12 hr.). (C) WB analysis of ALK expression in the indicated NB cell lines treated with or without CTK8G1150 (2 μM for 12 hr.). (D) WB analysis of MMP-9 and ALK expression in NGP and BE (2)-C NB cells expressing either a control shRNA (shGFP) or two different shRNAs against MMP-9. (E) Crystal violet-stained images of NGP and IMR-5 NB cells treated with CTK8G1150 ([…]) or DMSO for 16 hr. and then subjected to transwell migration assays for 48 hr. (left). Scale bar, 100 μm. Quantification of migration (right) reported as means±SD; ** p<0.01, n=4. See also, FIG. 14.
# (A) Immunoblot analyses of ALK expression in NGP cells after shRNA depletion of ADAM17 or ADAM10. Five separate shRNAs for ADAM17 and two shRNAs for ADAM10 were used. GADPH or β-actin were included as internal loading controls in this and subsequent panels. (B) Schematic illustration of the protease predicted to cleave ALK at the identified ECD cleavage site (Asn654-Leu655) generated using PROSPER and CleavPredict software. FIG. 14B discloses SEQ ID NO: 73. (C) WB analysis of ALK expression in the indicated lysates or conditioned media from cells engineered to express WT ALK and treated with or without the MMP-9 inhibitor, CTK8G1150 (2 μM for 12 hr.). Untreated cells or cells treated with DMSO were used as controls. The 8G7 N-terminal anti-ALK antibody was used to detect the shed fragment in conditioned medium (CM) and a C-terminal anti-ALK antibody was used for the cell lysates in this and subsequent panels. (D) WB analysis of ALK expression in NGP cells treated with the indicated concentrations of CTK8G1150 for 12 hr. (E) WB analysis of ALK expression in NGP cells treated with CTK8G1150 (2 μM) for the indicated time periods. (F) WB analysis of ALK following incubation of recombinant MMP-9 to ALK protein purified from 293T cells engineered to express WT or ALK LF655del.
# Most receptor tyrosine kinases (RTKs) undergo ECD cleavage by proteases known as sheddases, that include matrix metalloproteinases (MMPs) and A disintegrin and metalloproteinases (ADAMs) (Kreitman et al., 2018). These zinc-dependent, membrane-associated or secreted proteases cleave cell surface transmembrane proteins that play a primary role in the degradation of extracellular matrix proteins, thus affecting multiple biological functions, such as cell signaling, growth factor activation and cytokine release. […] We next determined whether ALK could be cleaved by MMP-9 in vitro (FIG. 14, panel F). […] Finally, to confirm the role of MMP-9 in ALK cleavage, we genetically depleted this protease through shRNA knockdown in two NB cell lines [NGP and BE(2)-C], observing a significant decrease in the 140 kDa product resulting from inhibition of cleavage (FIG. 7, panel D). Depletion of MMP-2, by contrast, led to only a slight decrease in cleavage.
# Cell lysates were prepared in NP-40 buffer (Invitrogen) containing complete protease inhibitor (Roche), phosphatase inhibitor (Roche) and phenylmethylsulfonyl fluoride (PMSF). Lysates were incubated on ice for 20 min and centrifuged at 16,000 g for 15 min at 4° C. Protein concentrations of the supernatants were determined with the DC protein assay kit (Bio-Rad). Protein samples were denatured using NuPAGE LDS sample buffer (Invitrogen) and NuPAGE sample reducing agent (Invitrogen). […]
# NGP and IMR-5 NB cells = assay: Transwell migration assay after MMP-9 inhibitor treatment; type: cell-based, human; conditions: CTK8G1150 (2 µM) 16 hr., transwell migration 48 hr.
# Source text: as §1
# Cell migration was measured using transwell chambers (Falcon; cell culture inserts with 8 μm pores) and a 24-well plate as the lower chamber. […]
# ALK-positive NSCLC = conditions: cited from earlier work
# neuroblastoma = conditions: human, in vivo; cited from earlier work
smiles,measurement,setting,value
COc1ccc(S(=O)(=O)N2CCN(C(=O)c3ccc(-c4ccccc4)cc3)CC2C(=O)NO)cc1 (centres unmarked) [CAS 204140-01-2],levels of the shed ALK ECD fragment in media from treated cells,"ALK ECD cleavage; NGP cells, 12 hr.",caused a decrease in the levels of the shed ALK ECD fragment
CCN(CC)Cc1cc(C)c(N(Cc2ccccc2)S(=O)(=O)c2ccc(OC)cc2)c(C(=O)NO)c1 [CTK8G1150],inhibition of ECD cleavage in cells engineered to overexpress WT ALK,"ALK ECD cleavage; 293T and NIH3T3 cells, 2 μM for 12 hr.",significant inhibition of ECD cleavage
same,ECD cleavage in endogenous WT ALK-expressing NB cell lines,"ALK ECD cleavage; NGP NB cells and four additional NB cell lines, 2 μM for 12 hr.",inhibited ECD cleavage
same,period over which ALK ECD cleavage disruption was maintained,"ALK ECD cleavage; NGP cells, 2 μM",> 52 h
same,ALK ECD cleavage / shed fragment,ALK ECD cleavage; NGP cells,produced a marked decrease in the shed fragment
same,dose dependence of ALK ECD cleavage disruption,"ALK ECD cleavage; NGP cells, indicated concentrations, 12 hr.",disrupted in a dose-dependent manner
same,migration of NB cells that endogenously expressed WT ALK,NGP and IMR-5 NB cells,significantly suppressed the migration
CNC(=O)[C@H](Cc1c[nH]c2ccccc12)NC(=O)[C@@H](CC(=O)NO)CC(C)C [GM6001],levels of the shed ALK ECD fragment in media from treated cells,"ALK ECD cleavage; NGP cells, 12 hr.",caused a decrease in the levels of the shed ALK ECD fragment
COC(=O)Nc1ccc2oc3cc(S(=O)(=O)N[C@@H](C(=O)O)C(C)C)ccc3c2c1 [MMP408],ALK ECD cleavage / shed fragment,ALK ECD cleavage; NGP cells,did not affect cleavage
Cc1cc(Nc2ncc(Cl)c(Nc3ccccc3S(=O)(=O)C(C)C)n2)c(OC(C)C)cc1C1CCNCC1 [ceritinib],median duration of response,ALK-positive NSCLC,16.6 months
C[C@@H](Oc1cc(-c2cnn(C3CCNCC3)c2)cnc1N)c1c(Cl)ccc(F)c1Cl [crizotinib],durability of responses in neuroblastoma patients,neuroblastoma,has not shown durable responses
